# Results reported in patent US7612064B2, “Sulfopyrroles” (Takeda Pharmaceutical Company Limited, priority 2003, dated 2009).
# Tests used:
# [1] = test system: MRC5; test: MTS proliferation assay; type: cell-based; conditions: MRC5, 72 h
# How it was run: (§1)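 Absorbance at 492 nm after a 3 h MTS incubation reports viable cell number. Before that, compounds at 10 μM, 3 μM, 1 μM and 0.3 μM final stay on the cells for 72 h at culture conditions.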
# [2] = test system: Jily; test: MTS proliferation assay; type: cell-based; conditions: 72 h
# How it was run: as §1
# [3] = test system: Jurkat; test: MTS proliferation assay; type: cell-based, human; conditions: 72 h
# How it was run: as §1
# [4] = test system: HeLa; test: MTS proliferation assay; type: cell-based, human; conditions: 72 h
# How it was run: as §1
# [5] = Hoechst 33342 nuclear staining; type: cell-based; conditions: for Hoechst 33342 nuclear staining score, H460: H460 cells; for Hoechst 33342 nuclear staining score, HeLa: HeLa cells; for Hoechst 33342 nuclear staining score, Jily: Jily cells; for Hoechst 33342 nuclear staining score, Jurkat: Jurkat cells; for Hoechst 33342 nuclear staining score, MRC5: MRC5 cells;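 for all read-outs here: apoptotic nuclei scored 0 none 1 weak under 50% of cells 2 strong over 50% of cells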
# How it was run: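 After a further 30 min incubation, plates were inspected on a standard inverted fluorescence microscope. The fraction of apoptotic nuclei and other apoptosis-specific morphology were scored as 0 for no activity, 1 for weak activity in less than 50% of the cells, and 2 for strong activity in more than 50% of the cells.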
structure (smiles),measurement,setting,value
COc1cc(-c2cc(-c3cccnc3)cn2S(=O)(=O)c2cccs2)cc(OC)c1OC [Example 90],IC50,[1],> 1000 nM
same,IC50,[2],< 1000 nM
same,IC50,[3],< 1000 nM
same,IC50,[4],> 1000 nM
same,"Hoechst 33342 nuclear staining score, H460",[5]; conc 0.1,0
same,"Hoechst 33342 nuclear staining score, H460",[5]; conc 0.3,0
same,"Hoechst 33342 nuclear staining score, H460",[5]; conc 1,0
same,"Hoechst 33342 nuclear staining score, H460",[5]; conc 3,2 (strong activity comprising more than 50% of the cells)
same,"Hoechst 33342 nuclear staining score, HeLa",[5]; conc 0.1,0
same,"Hoechst 33342 nuclear staining score, HeLa",[5]; conc 0.3,0
same,"Hoechst 33342 nuclear staining score, HeLa",[5]; conc 1,0
same,"Hoechst 33342 nuclear staining score, HeLa",[5]; conc 3,2 (strong activity comprising more than 50% of the cells)
same,"Hoechst 33342 nuclear staining score, Jily",[5]; conc 0.1,0
same,"Hoechst 33342 nuclear staining score, Jily",[5]; conc 0.3,0
same,"Hoechst 33342 nuclear staining score, Jily",[5]; conc 1,1 (weak activity comprising less than 50% of the cells)
same,"Hoechst 33342 nuclear staining score, Jily",[5]; conc 3,1 (weak activity comprising less than 50% of the cells)
same,"Hoechst 33342 nuclear staining score, Jurkat",[5]; conc 0.1,0
same,"Hoechst 33342 nuclear staining score, Jurkat",[5]; conc 0.3,0
same,"Hoechst 33342 nuclear staining score, Jurkat",[5]; conc 1,2 (strong activity comprising more than 50% of the cells)
same,"Hoechst 33342 nuclear staining score, Jurkat",[5]; conc 3,2 (strong activity comprising more than 50% of the cells)
same,"Hoechst 33342 nuclear staining score, MRC5",[5]; conc 0.1,0
same,"Hoechst 33342 nuclear staining score, MRC5",[5]; conc 0.3,0
same,"Hoechst 33342 nuclear staining score, MRC5",[5]; conc 1,0
same,"Hoechst 33342 nuclear staining score, MRC5",[5]; conc 3,0
same,"Hoechst 33342 nuclear staining score, PBLs",[5]; conc 0.1,0
same,"Hoechst 33342 nuclear staining score, PBLs",[5]; conc 0.3,0
same,"Hoechst 33342 nuclear staining score, PBLs",[5]; conc 1,0
same,"Hoechst 33342 nuclear staining score, PBLs",[5]; conc 3,0
"COc1ccc(S(=O)(=O)n2cc(CNc3ccc(N4CCOCC4)cc3)cc2-c2cc(OC)c(OC)c(OC)c2)cc1 [Example 94, 1-p-Methoxyphenylsulfonyl-4-p-morpholinophenylaminomethyl-2-(3,4,5-trimethoxyphenyl)-pyrrole]",IC50,[1]; Homo sapiens,< 200 nM
same,IC50,[2],< 200 nM
same,IC50,[3]; Homo sapiens,< 200 nM
same,IC50,[4]; Homo sapiens,< 200 nM
same,"Hoechst 33342 nuclear staining score, H460",[5]; conc 0.1,0
same,"Hoechst 33342 nuclear staining score, H460",[5]; conc 0.3,2 (strong activity comprising more than 50% of the cells)
same,"Hoechst 33342 nuclear staining score, H460",[5]; conc 1,2 (strong activity comprising more than 50% of the cells)
same,"Hoechst 33342 nuclear staining score, H460",[5]; conc 3,2 (strong activity comprising more than 50% of the cells)
same,"Hoechst 33342 nuclear staining score, HeLa",[5]; conc 0.1,0
same,"Hoechst 33342 nuclear staining score, HeLa",[5]; conc 0.3,2 (strong activity comprising more than 50% of the cells)
same,"Hoechst 33342 nuclear staining score, HeLa",[5]; conc 1,2 (strong activity comprising more than 50% of the cells)
same,"Hoechst 33342 nuclear staining score, HeLa",[5]; conc 3,2 (strong activity comprising more than 50% of the cells)
same,"Hoechst 33342 nuclear staining score, Jily",[5]; conc 0.1,0
same,"Hoechst 33342 nuclear staining score, Jily",[5]; conc 0.3,2 (strong activity comprising more than 50% of the cells)
same,"Hoechst 33342 nuclear staining score, Jily",[5]; conc 1,2 (strong activity comprising more than 50% of the cells)
same,"Hoechst 33342 nuclear staining score, Jily",[5]; conc 3,2 (strong activity comprising more than 50% of the cells)
same,"Hoechst 33342 nuclear staining score, Jurkat",[5]; conc 0.1,0
same,"Hoechst 33342 nuclear staining score, Jurkat",[5]; conc 0.3,2 (strong activity comprising more than 50% of the cells)
same,"Hoechst 33342 nuclear staining score, Jurkat",[5]; conc 1,2 (strong activity comprising more than 50% of the cells)
same,"Hoechst 33342 nuclear staining score, Jurkat",[5]; conc 3,2 (strong activity comprising more than 50% of the cells)
same,"Hoechst 33342 nuclear staining score, MRC5",[5]; conc 0.1,0
same,"Hoechst 33342 nuclear staining score, MRC5",[5]; conc 0.3,0
same,"Hoechst 33342 nuclear staining score, MRC5",[5]; conc 1,0
same,"Hoechst 33342 nuclear staining score, MRC5",[5]; conc 3,2 (strong activity comprising more than 50% of the cells)
same,"Hoechst 33342 nuclear staining score, PBLs",[5]; conc 0.1,0
same,"Hoechst 33342 nuclear staining score, PBLs",[5]; conc 0.3,0
same,"Hoechst 33342 nuclear staining score, PBLs",[5]; conc 1,0
same,"Hoechst 33342 nuclear staining score, PBLs",[5]; conc 3,0
COc1ccc(S(=O)(=O)n2cc(-c3cncc(C(N)=O)c3)cc2-c2ccccc2OC)cc1 [Example 107],IC50,[1],> 1000 nM
same,IC50,[2],< 1000 nM
same,IC50,[3],< 1000 nM
same,IC50,[4],> 1000 nM
same,"Hoechst 33342 nuclear staining score, H460",[5]; conc 0.1,0
same,"Hoechst 33342 nuclear staining score, H460",[5]; conc 0.3,0
same,"Hoechst 33342 nuclear staining score, H460",[5]; conc 1,1 (weak activity comprising less than 50% of the cells)
same,"Hoechst 33342 nuclear staining score, H460",[5]; conc 3,2 (strong activity comprising more than 50% of the cells)
same,"Hoechst 33342 nuclear staining score, HeLa",[5]; conc 0.1,0
same,"Hoechst 33342 nuclear staining score, HeLa",[5]; conc 0.3,0
same,"Hoechst 33342 nuclear staining score, HeLa",[5]; conc 1,0
same,"Hoechst 33342 nuclear staining score, HeLa",[5]; conc 3,2 (strong activity comprising more than 50% of the cells)
same,"Hoechst 33342 nuclear staining score, Jily",[5]; conc 0.1,0
same,"Hoechst 33342 nuclear staining score, Jily",[5]; conc 0.3,0
same,"Hoechst 33342 nuclear staining score, Jily",[5]; conc 1,2 (strong activity comprising more than 50% of the cells)
same,"Hoechst 33342 nuclear staining score, Jily",[5]; conc 3,2 (strong activity comprising more than 50% of the cells)
same,"Hoechst 33342 nuclear staining score, Jurkat",[5]; conc 0.1,0
same,"Hoechst 33342 nuclear staining score, Jurkat",[5]; conc 0.3,0
same,"Hoechst 33342 nuclear staining score, Jurkat",[5]; conc 1,2 (strong activity comprising more than 50% of the cells)
same,"Hoechst 33342 nuclear staining score, Jurkat",[5]; conc 3,2 (strong activity comprising more than 50% of the cells)
same,"Hoechst 33342 nuclear staining score, MRC5",[5]; conc 0.1,0
same,"Hoechst 33342 nuclear staining score, MRC5",[5]; conc 0.3,0
same,"Hoechst 33342 nuclear staining score, MRC5",[5]; conc 1,0
same,"Hoechst 33342 nuclear staining score, MRC5",[5]; conc 3,0
same,"Hoechst 33342 nuclear staining score, PBLs",[5]; conc 0.1,0
same,"Hoechst 33342 nuclear staining score, PBLs",[5]; conc 0.3,0
same,"Hoechst 33342 nuclear staining score, PBLs",[5]; conc 1,0
same,"Hoechst 33342 nuclear staining score, PBLs",[5]; conc 3,0
